What was measured:
[1] = target: T1, α1G T-type calcium channel (Homo sapiens, UniProt O43497); assay: Assay for % inhibiting activity against T-type calcium channel using FDSS6000; format: cell-based; details: HEK293, 10 μM, HEK293 cells expressing α1G
T1 construct: host or cells: HEK293
Procedure: In the present invention, in order to search an efficient inhibitor against T-type calcium channel, a primary assay for T-type calcium channel inhibiting activity was conducted by a high-efficient assay using FDSS6000, wherein mammal HEK293 cell lines (originated from human kidney carcinoma cells) which specifically expresses α1G of T-type calcium channel was used for primary assay. Through the primary assay, compounds which show meaningful inhibition effects were selected. The selected compounds were used in a second assay for T-type calcium channel inhibiting activity using electrophysiological whole cell patch clamp method, wherein mammal HEK293 cell lines (originated from human kidney carcinoma cells) which specifically expresses α1G of T-type calcium channel was used for the second assay.
At 12-24 hours before being used for this assay, cells of HEK293 cell line (α1G cell line: KCTC 10519BP, Korean Collection for Type Cultures), which stably express α1G T-type calcium channel and Kir2.1, were sub-cultured in a poly-L-lysine treated 96-well plate with the density of 4×10^4 per a well using a 96-well cell dispenser (Titertek). On the of assay, the 96-well plate to which the cells were attached were washed three times with HEPES buffer solution (150 mM of NaCl, 5 mM of KCl, 1 mM of MgCl2, 2 mM of CaCl2, 10 mM of HEPES, 10 mM of glucose; pH 7.4) using a 96-well plate automatic washing device (Bio Tek), then reacted with HEPES buffer solution containing 5 μM fluo-3/AM and 0.001% Pluronic F-127 under room temperature for 1 hour, to label with fluorescent dye, and then further washed two times with HEPES buffer solution.
Thereafter, at 10 minutes before the measurement using device FDSS6000, a washing with HEPES buffer solution containing 10 mM CaCl2 was conducted once more, and the final volume was adjusted to 81 μl. Besides the above 96-well plate containing the cells, additional two drug 96-well plates were provided, wherein the 96-well plates contain inhibiting drug and KCl (final concentration: 75 mM) for activating T-type calcium channel, respectively. Since most of cell-based HTS devices are equipped with a liquid application system for injection of drug, but have no liquid sucking system, the inhibiting drug to be tested and KCl were respectively provided at the five-times higher concentration in 10 mM CaCl2 HEPES buffer solution at the amount of 27 μl, diluted five-times at the final cell plate volume of 135 μl, and then used in this test. The concrete method of measurement using FDSS6000 was as follows: After recording the reference value of 20 seconds, the change of intracellular Ca^2+ concentration which induced by treatment of the inhibiting drug to be tested for 75 seconds followed by administration of KCl was measured, wherein the percentage (%) inhibition effect of the test drug, through estimating the area of ratio value of 340/380 in the control without treatment of the test drug as 100%. As a reference drug, mibefradil was used.
For accurate calcium-imagination, the light source of 4 xenon lamps in FDSS6000 were radiated to make the cells exposed selectively to the excitation wavelength (340 nm and 380 nm) by computer-controlled filter wheel. Data was obtained at interval of each 1.23 second. The emitter fluorescence light inflowed through long-pass filter was obtained as an average 340/380 ratio value for each well in the 96-wells by using CCD camera and digital fluorescence analyzer in FDSS6000. All image data and analyses were obtained by using FDSS6000-exclusive program provide from Hamamatsu Photonics.

[2] = Table 4 (Chemical Formula 3 series)

T1 sequence (O43497 whole entry): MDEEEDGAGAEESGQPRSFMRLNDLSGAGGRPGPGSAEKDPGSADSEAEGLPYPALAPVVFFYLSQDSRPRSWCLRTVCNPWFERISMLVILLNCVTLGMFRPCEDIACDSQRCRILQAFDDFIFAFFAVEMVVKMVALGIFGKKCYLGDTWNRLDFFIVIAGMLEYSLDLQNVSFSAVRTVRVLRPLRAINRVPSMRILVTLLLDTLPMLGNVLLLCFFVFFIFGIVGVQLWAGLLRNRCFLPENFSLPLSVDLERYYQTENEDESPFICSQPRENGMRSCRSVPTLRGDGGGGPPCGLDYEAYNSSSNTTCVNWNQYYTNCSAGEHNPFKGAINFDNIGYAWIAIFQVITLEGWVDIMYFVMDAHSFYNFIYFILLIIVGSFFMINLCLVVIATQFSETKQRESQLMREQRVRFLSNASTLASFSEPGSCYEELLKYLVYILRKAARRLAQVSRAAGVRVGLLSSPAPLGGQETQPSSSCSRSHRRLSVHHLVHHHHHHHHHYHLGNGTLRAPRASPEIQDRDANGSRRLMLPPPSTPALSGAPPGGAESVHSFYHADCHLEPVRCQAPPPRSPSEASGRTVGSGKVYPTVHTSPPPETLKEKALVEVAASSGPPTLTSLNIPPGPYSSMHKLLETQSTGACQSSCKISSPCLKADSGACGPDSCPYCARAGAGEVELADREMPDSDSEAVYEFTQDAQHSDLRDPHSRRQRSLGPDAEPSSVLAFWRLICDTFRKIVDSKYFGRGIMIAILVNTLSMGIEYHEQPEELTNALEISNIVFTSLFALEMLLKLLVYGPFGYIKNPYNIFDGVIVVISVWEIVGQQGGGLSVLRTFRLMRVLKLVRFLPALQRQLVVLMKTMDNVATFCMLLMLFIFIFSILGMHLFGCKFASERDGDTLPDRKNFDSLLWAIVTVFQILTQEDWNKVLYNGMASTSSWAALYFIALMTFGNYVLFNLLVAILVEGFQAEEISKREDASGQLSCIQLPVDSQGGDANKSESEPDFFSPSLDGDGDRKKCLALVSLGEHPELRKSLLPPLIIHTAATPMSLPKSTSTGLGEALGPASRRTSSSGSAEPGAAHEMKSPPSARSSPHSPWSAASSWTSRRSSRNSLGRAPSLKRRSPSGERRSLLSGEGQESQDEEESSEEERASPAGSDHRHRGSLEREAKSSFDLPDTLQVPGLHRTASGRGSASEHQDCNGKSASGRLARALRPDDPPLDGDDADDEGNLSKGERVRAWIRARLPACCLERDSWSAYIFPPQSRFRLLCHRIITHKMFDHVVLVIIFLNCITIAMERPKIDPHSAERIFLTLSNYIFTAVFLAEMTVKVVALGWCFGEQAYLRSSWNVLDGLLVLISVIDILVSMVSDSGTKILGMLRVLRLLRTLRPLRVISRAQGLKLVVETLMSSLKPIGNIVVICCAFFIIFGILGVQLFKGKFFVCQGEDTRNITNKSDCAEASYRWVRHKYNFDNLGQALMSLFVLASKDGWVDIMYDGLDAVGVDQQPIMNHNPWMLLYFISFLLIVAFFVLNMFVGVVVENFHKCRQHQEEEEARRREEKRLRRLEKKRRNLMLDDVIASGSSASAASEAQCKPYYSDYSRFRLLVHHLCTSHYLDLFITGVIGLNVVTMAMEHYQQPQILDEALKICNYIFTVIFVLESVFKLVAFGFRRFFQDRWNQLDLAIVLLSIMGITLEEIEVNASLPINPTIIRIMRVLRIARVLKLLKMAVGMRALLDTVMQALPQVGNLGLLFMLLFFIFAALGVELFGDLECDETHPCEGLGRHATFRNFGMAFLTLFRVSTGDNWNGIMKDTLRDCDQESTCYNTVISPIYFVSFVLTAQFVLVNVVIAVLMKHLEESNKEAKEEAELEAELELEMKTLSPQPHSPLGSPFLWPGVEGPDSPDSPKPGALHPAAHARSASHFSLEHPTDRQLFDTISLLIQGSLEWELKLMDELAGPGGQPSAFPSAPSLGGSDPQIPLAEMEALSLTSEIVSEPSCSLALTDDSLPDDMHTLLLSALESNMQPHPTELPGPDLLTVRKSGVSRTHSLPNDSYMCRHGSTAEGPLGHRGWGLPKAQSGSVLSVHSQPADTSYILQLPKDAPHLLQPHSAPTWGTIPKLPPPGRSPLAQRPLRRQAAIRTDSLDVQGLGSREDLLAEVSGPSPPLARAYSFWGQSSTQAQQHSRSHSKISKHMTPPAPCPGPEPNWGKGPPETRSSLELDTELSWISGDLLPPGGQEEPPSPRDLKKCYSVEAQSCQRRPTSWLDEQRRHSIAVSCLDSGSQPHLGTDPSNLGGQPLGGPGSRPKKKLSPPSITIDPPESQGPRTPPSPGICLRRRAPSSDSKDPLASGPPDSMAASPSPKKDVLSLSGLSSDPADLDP

Compound	melting point [°C]	inhibition at 10 µM ([1]; Table 3 (Chemical Formula 2 series)) [%]	inhibition at 10 µM [1, 2] [%]
CCOc1ccc(NC(=O)Cc2csc(N=C(N)N)n2)cc1.Cl [KHG23192, N-(4-ethoxyphenyl)-2-(2-(diaminomethyleneamino)thiazole-4-yl)acetamide hydrochloride]	242.1 to 242.6	16.8	–
Cl.NC(N)=Nc1nc(-c2ccc(Cl)cc2)cs1 [KHG24024, 2-(4-(4-chlorophenyl)thiazole-2-yl)guanidine hydrochloride]	264.9	–	13
Cl.NC(N)=Nc1nc(-c2ccc(F)cc2)cs1 [KHG24025, 2-(4-(4-fluorophenyl)thiazole-2-yl)guanidine hydrochloride]	223.3	–	19.9
Cl.NC(N)=Nc1nc(-c2ccc(F)cc2F)cs1 [KHG24026, 2-(4-(2,4-difluorophenyl)thiazole-2-yl)guanidine hydrochloride]	248.9	–	19.8
Br.COc1ccc(-c2csc(N=C(N)N)n2)c(OC)c1 [KHG24376, 2-(4-(2,4-dimethoxyphenyl)thiazole-2-yl)guanidine hydrobromide]	213	–	16.1
Br.NC(N)=Nc1nc(-c2ccc(Cl)cc2Cl)cs1 [KHG24379, 2-(4-(2,4-dichlorophenyl)thiazole-2-yl)guanidine hydrobromide]	173	–	16.8
Br.NC(N)=Nc1nc(-c2ccccc2)cs1 [KHG24380, 2-(4-phenylthiazole-2-yl)guanidine hydrobromide]	209.5	–	19.6
Br.NC(N)=Nc1nc(-c2ccc(Br)cc2)cs1 [KHG24381, 2-(4-(4-bromophenyl)thiazole-2-yl)guanidine hydrobromide]	278.5	–	20.8
Br.Cc1cccc(-c2csc(N=C(N)N)n2)c1 [KHG24382, 2-(4-m-tolylthiazole-2-yl)guanidine hydrobromide]	232.4	–	22.3
Br.NC(N)=Nc1nc(-c2cccc(F)c2)cs1 [KHG24383, 2-(4-(3-fluorophenyl)thiazole-2-yl)guanidine hydrobromide]	242.1	–	21.6
Br.NC(N)=Nc1nc(-c2ccccc2F)cs1 [KHG24384, 2-(4-(2-fluorophenyl)thiazole-2-yl)guanidine hydrobromide]	229.6	–	20.3
Br.NC(N)=Nc1nc(-c2cccc(Br)c2)cs1 [KHG24386, 2-(4-(3-bromophenyl)thiazole-2-yl)guanidine hydrobromide]	179.8	–	10.9

Continued, values first:

melting point [°C]	inhibition at 10 µM ([1]; Table 3 (Chemical Formula 2 series)) [%]	inhibition at 10 µM [1, 2] [%]	Compound
233.3	–	21.2	Cl.NC(N)=Nc1nc(-c2ccc3c(c2)OCC(=O)N3)cs1 [KHG24037, 2-(4-(3-oxo-3,4-dihydro-2H-benzo[b][1,4]oxazine-7-yl)thiazole-2-yl)guanidine hydrochloride]
300.3	–	14.2	Cl.NC(N)=Nc1nc(-c2ccc(-c3ccccc3)cc2)cs1 [KHG24038, 2-(4-(biphenyl-4-yl)thiazole-2-yl)guanidine hydrochloride]
211.9	–	21.7	Br.NC(N)=Nc1nc(-c2ccccc2Cl)cs1 [KHG24373, 2-(4-(2-chlorophenyl)thiazole-2-yl)guanidine hydrobromide]
245.4	–	20.7	Br.COc1ccccc1-c1csc(N=C(N)N)n1 [KHG24374, 2-(4-(2-methoxyphenyl)thiazole-2-yl)guanidine hydrobromide]
202.6	–	20.2	Br.COc1ccc(-c2csc(N=C(N)N)n2)c(F)c1 [KHG24377, 2-(4-(2-fluoro-4-methoxyphenyl)thiazole-2-yl)guanidine hydrobromide]
224.8	–	15.8	Br.NC(N)=Nc1nc(-c2cccc(C(F)(F)F)c2)cs1 [KHG24385, 2-(4-(3-(trifluoromethyl)phenyl)thiazole-2-yl)guanidine hydrobromide]
